Laboratory results: US4450269A, “Mono-5-substituted-3-chloro-4H-1,2,6-thiadiazin-4-one antifungal agents” (FMC Corporation, priority 1980, dated 1984)
Counter-ions that a name gives are not always drawn.

What was measured:
Erysiphe polygoni = assay: Spore germination test; assay type: cell-based; conditions: EP, 48 hours
Summary of the method: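 Compound was delivered in acetone into water agar at final 40, 10, 2.5 and 1 ppm. Alternaria solani and Botrytis cinerea spores were applied as sterile-water suspensions, while Erysiphe polygoni and Uromyces phaseoli spores were brushed on from infected leaves. After 48 h at 24° C., percentage germination was converted to a rating.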

Alternaria solani = assay: Mycelial growth test; assay type: cell-based; conditions: AS; for inhibition at 5 ppm / inhibition at 10 ppm / inhibition at 20 ppm / inhibition at 40 ppm: Alternaria solani, 72 h, read-out: Percent Fungus Growth Inhibition; for Percent Fungus Growth Inhibition: 72 hours

Row | Compound | Spore Germination Rating (Erysiphe polygoni; 1.0 ppm) | Spore Germination Rating (Erysiphe polygoni; 2.5 ppm) | Spore Germination Rating (Erysiphe polygoni; 10 ppm) | Spore Germination Rating (Erysiphe polygoni; 40 ppm) | inhibition at 5 ppm (Alternaria solani; 5 ppm) [%] | inhibition at 10 ppm (Alternaria solani; 10 ppm) [%] | inhibition at 20 ppm (Alternaria solani; 20 ppm) [%] | inhibition at 40 ppm (Alternaria solani; 40 ppm) [%] | Percent Fungus Growth Inhibition (Alternaria solani; 5 ppm) [%] | Percent Fungus Growth Inhibition (Alternaria solani; 10 ppm) [%] | Percent Fungus Growth Inhibition (Alternaria solani; 20 ppm) [%] | Percent Fungus Growth Inhibition (Alternaria solani; 40 ppm) [%] | Percent Fungus Growth Inhibition (Alternaria solani; 5 ppm, hydrochloride) [%] | Percent Fungus Growth Inhibition (Alternaria solani; 10 ppm, hydrochloride) [%] | Percent Fungus Growth Inhibition (Alternaria solani; 20 ppm, hydrochloride) [%] | Percent Fungus Growth Inhibition (Alternaria solani; 40 ppm, hydrochloride) [%]
1 | Cc1ccccc1Oc1nsnc(Cl)c1=O [Compound 22, 3-chloro-5-(2-methylphenoxy)-4H--1,2,6-thiadiazin-4-one] | 4 (80-100) | 4 (80-100) | 3 (60-80) | 1 (10-40) | 63 | 88 | 100 | 100 |  |  |  |  |  |  |  | 
2 | N#CCc1ccc(Oc2nsnc(Cl)c2=O)cc1 [Compound 46, 3-chloro-5-[(4-cyanomethyl)-phenoxy]4H--1,2,6-thiadiazin-4-one] | 4 (80-100) | 4 (80-100) | 4 (80-100) | 4 (80-100) | 71 | 81 | 100 | 100 |  |  |  |  |  |  |  | 
3 | O=C(OCc1ccccc1)Oc1ccc(Oc2nsnc(Cl)c2=O)cc1 [Compound 38, 3-chloro-5-[4-(phenylmethoxycarbonyloxy)phenoxyl]-4H-1,2,6-thiadiazin-4-one] | 4 (80-100) | 4 (80-100) | 4 (80-100) | 4 (80-100) | 5 | 48 | 33 | 90 |  |  |  |  |  |  |  | 
4 | O=c1c(Cl)nsnc1Oc1ccc([N+](=O)[O-])cc1Cl [Compound 53, 3-chloro-5-(2-chloro-4-nitrophenoxy)-4H--1,2,6-thiadiazin-4-one] | 2 (40-60) | 1 (10-40) | 0 (0-10) | 0 (0-10) | 38 | 42 | 67 | 100 |  |  |  |  |  |  |  | 
5 | Cc1cccc(Oc2nsnc(Cl)c2=O)c1 [Compound 21, 3-chloro-5-(3-methylphenoxy)-4H--1,2,6-thiadiazin-4-one] | 4 (80-100) | 3 (60-80) | 2 (40-60) | 0 (0-10) | 75 | 63 | 75 | 100 |  |  |  |  |  |  |  | 
6 | O=c1c(Cl)nsnc1Oc1cccc(C(F)(F)F)c1 [Compound 44, 3-chloro-5-[(3-trifluoromethyl)phenoxy]-4H--1,2,6-thiadiazin-4-one] | 3 (60-80) | 1 (10-40) | 0 (0-10) | 0 (0-10) | 52 | 62 | 100 | 100 |  |  |  |  |  |  |  | 
7 | O=c1c(Cl)nsnc1Oc1ccc([N+](=O)[O-])cc1 [Compound 9, 3-chloro-5-(4-nitrophenoxy)-4H--1,2,6-thiadiazin-4-one] | 4 (80-100) | 4 (80-100) | 4 (80-100) | 4 (80-100) | 31 | 63 | 100 | 100 |  |  |  |  |  |  |  | 
8 | O=c1c(Cl)nsnc1Oc1ccccc1Cl [Compound 14, 3-chloro-5-(2-chlorophenoxy)-4H--1,2,6-thiadiazin-4-one] | 4 (80-100) | 4 (80-100) | 2 (40-60) | 0 (0-10) | 86 | 79 | 100 | 100 |  |  |  |  |  |  |  | 
9 | 3-chloro-5-(bromophenoxy)-4H-1,2,6-thiadiazin-4-one [Compound 33] | 0 (0-10) | 0 (0-10) | 0 (0-10) | 0 (0-10) |  |  |  |  | 100 | 100 | 100 | 100 |  |  |  | 
10 | CC(=O)Nc1ccccc1Oc1nsnc(Cl)c1=O [Compound 43, 3-[(2-acetylamino)-phenoxy]-5-chloro-4H--1,2,6-thiadiazin-4-one] | 4 (80-100) | 4 (80-100) | 4 (80-100) | 1 (10-40) | 80 | 100 | 100 | 100 |  |  |  |  |  |  |  | 
11 | COc1ccc(Oc2nsnc(Cl)c2=O)cc1 [Compound 5, 3-chloro-5-(4-methoxyphenoxy)4H--1,2,6-thiadiazin-4-one] | 4 (80-100) | 4 (80-100) | 4 (80-100) | 0 (0-10) | 100 | 100 | 100 | 100 |  |  |  |  |  |  |  | 
12 | COc1cc(Cl)cc(Oc2nsnc(Cl)c2=O)c1 [Compound 52, 3-chloro-5-[(3-chloro-5-methoxy)phenoxy]-4H--1,2,6-thiadiazin-4-one] | 4 (80-100) | 2 (40-60) | 0 (0-10) | 0 (0-10) | 52 | 71 | 90 | 90 |  |  |  |  |  |  |  | 
13 | Nc1ccc(Oc2nsnc(Cl)c2=O)cc1 [Compound 27, 5-(4-aminophenoxy)-3-chloro-4H--1,2,6-thiadiazine-4-one hydrochloride] |  |  |  |  |  |  |  |  |  |  |  |  | 47 | 73 | 80 | 87
